Data as given in ChEMBL document CHEMBL5344406, “1,2,3-Triazole-containing hybrids with potential antibacterial activity against ESKAPE pathogens” (2022).
Converted amounts (≈) assume the structure as drawn.

Experiments:
Format in all cases: functional
Pseudomonas aeruginosa [1] = assay: Antibacterial activity against Pseudomonas aeruginosa assessed as bacterial growth inhibition
Escherichia coli [2] = assay: Antibacterial activity against Escherichia coli assessed as bacterial growth inhibition
Staphylococcus aureus [3] = assay: Antibacterial activity against methicillin-resistant Staphylococcus aureus clinical isolate 1 assessed as bacterial growth inhibition incubated for 8 hrs by CLSI based broth microdilution method
Staphylococcus aureus [4] = assay: Antibacterial activity against methicillin-resistant Staphylococcus aureus clinical isolate 2 assessed as bacterial growth inhibition incubated for 8 hrs by CLSI based broth microdilution method
Pseudomonas aeruginosa [5] = assay: Antibacterial activity against Pseudomonas aeruginosa assessed as bacterial growth inhibition by serial dilution method
Bacillus subtilis = assay: Antibacterial activity against Bacillus subtilis assessed as bacterial growth inhibition by serial dilution method
[6] = tested on: Staphylococcus epidermidis; assay: Antibacterial activity against Staphylococcus epidermidis assessed as bacterial growth inhibition by serial dilution method
Escherichia coli [7] = assay: Antibacterial activity against Escherichia coli assessed as bacterial growth inhibition by serial dilution method
Staphylococcus aureus [8] = assay: Antibacterial activity against Staphylococcus aureus assessed as bacterial growth inhibition by serial dilution method
Acinetobacter baumannii = assay: Antibacterial activity against Acinetobacter baumannii ATCC 19606 assessed as bacterial growth inhibition incubated for 18 to 20 hrs by broth microdilution method; details: time 18-20 hrs
Escherichia coli [9] = assay: Antibacterial activity against Escherichia coli ATCC 25922 assessed as bacterial growth inhibition incubated for 18 to 20 hrs by broth microdilution method; details: time 18-20 hrs
Klebsiella pneumoniae = assay: Antibacterial activity against Klebsiella pneumoniae ATCC 29665 assessed as bacterial growth inhibition incubated for 18 to 20 hrs by broth microdilution method; details: time 18-20 hrs
Pseudomonas aeruginosa [10] = assay: Antibacterial activity against Pseudomonas aeruginosa ATCC 27853 assessed as bacterial growth inhibition incubated for 18 to 20 hrs by broth microdilution method; details: time 18-20 hrs
Staphylococcus aureus [11] = assay: Antibacterial activity against Staphylococcus aureus ATCC 25923 assessed as bacterial growth inhibition incubated for 18 to 20 hrs by broth microdilution method; details: time 18-20 hrs
Staphylococcus aureus [12] = assay: Antibacterial activity against Staphylococcus aureus clinical isolate 144 assessed as bacterial growth inhibition incubated for 24 hrs by broth microdilution method
Staphylococcus aureus [13] = assay: Antibacterial activity against Staphylococcus aureus ATCC 29213 assessed as bacterial growth inhibition incubated for 24 hrs by broth microdilution method
Staphylococcus aureus [14] = assay: Antibacterial activity against Staphylococcus aureus ATCC 43300 assessed as bacterial growth inhibition incubated for 24 hrs by broth microdilution method
Staphylococcus aureus [15] = assay: Antibacterial activity against Staphylococcus aureus clinical isolate AD3 assessed as bacterial growth inhibition incubated for 24 hrs by broth microdilution method

O=C(/C=C/c1ccc(OCc2cn(Cc3ccccc3Br)nn2)cc1)c1ccc(Br)cc1
MIC (Pseudomonas aeruginosa [1]): 6.25 µg/mL (≈ 11.3 µM)
MIC (Escherichia coli [2]): 6.25 µg/mL (≈ 11.3 µM)

O=C(/C=C/c1ccc(OCc2cn(Cc3ccc(Br)cc3)nn2)cc1)c1ccc([N+](=O)[O-])cc1
MIC (Pseudomonas aeruginosa [1]): 6.25 µg/mL (≈ 12 µM)
MIC (Escherichia coli [2]): 6.25 µg/mL (≈ 12 µM)

C#CCOCCOCCOCc1cn([C@H](CC(C)C)C(=O)N[C@@H]2Cc3ccc(c(Cl)c3)Oc3cc4cc(c3O[C@@H]3O[C@H](CO)[C@@H](O)[C@H](O)[C@H]3O[C@H]3C[C@](C)(NCCCCCCCc5ccccc5)[C@H](O)[C@H](C)O3)Oc3ccc(cc3Cl)[C@@H](O)[C@@H]3NC(=O)[C@H](NC(=O)[C@@H]4NC(=O)[C@H](CC(=O)O)NC2=O)c2ccc(O)c(c2)-c2c(O)cc(O)cc2[C@H](C(=O)O)NC3=O)nn1
MIC (Staphylococcus aureus [3]): 25 µg/mL (≈ 13.9 µM)
MIC (Staphylococcus aureus [4]): 12.5 µg/mL (≈ 6.93 µM)

COc1ccc(-n2cc(COc3ccccc3/C=N/NC(N)=O)nn2)cc1
MIC (Pseudomonas aeruginosa [5]): 25 µg/mL (≈ 68.2 µM)
MIC (Bacillus subtilis): 25 µg/mL (≈ 68.2 µM)
MIC [6]: 25 µg/mL (≈ 68.2 µM)
MIC (Escherichia coli [7]): 25 µg/mL (≈ 68.2 µM)
MIC (Staphylococcus aureus [8]): 25 µg/mL (≈ 68.2 µM)

NC(=O)N/N=C/c1ccccc1OCc1cn(-c2ccc(F)cc2)nn1
MIC (Pseudomonas aeruginosa [5]): 25 µg/mL (≈ 70.6 µM)
MIC (Bacillus subtilis): 25 µg/mL (≈ 70.6 µM)
MIC [6]: 25 µg/mL (≈ 70.6 µM)
MIC (Escherichia coli [7]): 25 µg/mL (≈ 70.6 µM)
MIC (Staphylococcus aureus [8]): 25 µg/mL (≈ 70.6 µM)

NC(=O)N/N=C/c1ccccc1OCc1cn(-c2ccccc2)nn1
MIC (Pseudomonas aeruginosa [5]): 25 µg/mL (≈ 74.3 µM)
MIC (Bacillus subtilis): 25 µg/mL (≈ 74.3 µM)
MIC [6]: 25 µg/mL (≈ 74.3 µM)
MIC (Escherichia coli [7]): 25 µg/mL (≈ 74.3 µM)
MIC (Staphylococcus aureus [8]): 25 µg/mL (≈ 74.3 µM)

O=C(Cn1cc(CN2CCN(c3cc4c(cc3F)c(=O)c(C(=O)O)cn4C3CC3)CC2)nn1)N[C@@H](Cc1ccccc1C(F)(F)F)C(=O)O
MIC (Acinetobacter baumannii): 0.25 µg/mL (≈ 0.365 µM)
MIC (Escherichia coli [9]): 0.25 µg/mL (≈ 0.365 µM)
MIC (Klebsiella pneumoniae): 0.25 µg/mL (≈ 0.365 µM)
MIC (Pseudomonas aeruginosa [10]): 0.25 µg/mL (≈ 0.365 µM)
MIC (Staphylococcus aureus [11]): 0.25 µg/mL (≈ 0.365 µM)

O=C(/C=C/c1ccc(OCc2cn(Cc3ccc(Br)cc3)nn2)cc1)c1ccc(Br)cc1
MIC (Pseudomonas aeruginosa [1]): 6.25 µg/mL (≈ 11.3 µM)
MIC (Escherichia coli [2]): 6.25 µg/mL (≈ 11.3 µM)

Cc1cc(O)c(C(=O)/C=C/c2ccc(OCc3cn(Cc4ccc(Br)cc4)nn3)cc2)c(=O)o1
MIC (Pseudomonas aeruginosa [1]): 1.56 µg/mL (≈ 2.99 µM)
MIC (Escherichia coli [2]): 1.56 µg/mL (≈ 2.99 µM)

C=CCOc1ccc(C[C@H](NC(=O)Cn2cc(CN3CCN(c4cc5c(cc4F)c(=O)c(C(=O)O)cn5C4CC4)CC3)nn2)C(=O)O)cc1
MIC (Acinetobacter baumannii): 0.25 µg/mL (≈ 0.371 µM)
MIC (Escherichia coli [9]): 0.25 µg/mL (≈ 0.371 µM)
MIC (Klebsiella pneumoniae): 0.25 µg/mL (≈ 0.371 µM)
MIC (Pseudomonas aeruginosa [10]): 0.25 µg/mL (≈ 0.371 µM)
MIC (Staphylococcus aureus [11]): 0.25 µg/mL (≈ 0.371 µM)

NC(=S)N/N=C/c1cccc(OCc2cn(Cc3ccc(Br)cc3)nn2)c1
MIC (Pseudomonas aeruginosa [5]): 6.25 µg/mL (≈ 14 µM)
MIC (Bacillus subtilis): 6.25 µg/mL (≈ 14 µM)
MIC [6]: 6.25 µg/mL (≈ 14 µM)
MIC (Escherichia coli [7]): 6.25 µg/mL (≈ 14 µM)
MIC (Staphylococcus aureus [8]): 6.25 µg/mL (≈ 14 µM)

NC(=S)N/N=C/c1ccccc1OCc1cn(Cc2ccc(Br)cc2)nn1
MIC (Pseudomonas aeruginosa [5]): 6.25 µg/mL (≈ 14 µM)
MIC (Bacillus subtilis): 6.25 µg/mL (≈ 14 µM)
MIC [6]: 6.25 µg/mL (≈ 14 µM)
MIC (Escherichia coli [7]): 6.25 µg/mL (≈ 14 µM)
MIC (Staphylococcus aureus [8]): 6.25 µg/mL (≈ 14 µM)

O=C(Cn1cc(CN2CCN(c3cc4c(cc3F)c(=O)c(C(=O)O)cn4C3CC3)CC2)nn1)N[C@@H](Cc1ccccn1)C(=O)O
MIC (Acinetobacter baumannii): 0.25 µg/mL (≈ 0.404 µM)
MIC (Escherichia coli [9]): 0.25 µg/mL (≈ 0.404 µM)
MIC (Klebsiella pneumoniae): 0.25 µg/mL (≈ 0.404 µM)
MIC (Pseudomonas aeruginosa [10]): 0.25 µg/mL (≈ 0.404 µM)
MIC (Staphylococcus aureus [11]): 0.25 µg/mL (≈ 0.404 µM)

NC(=O)N/N=C/c1ccccc1OCc1cn(-c2ccc(Cl)cc2)nn1
MIC (Pseudomonas aeruginosa [5]): 25 µg/mL (≈ 67.4 µM)
MIC (Bacillus subtilis): 25 µg/mL (≈ 67.4 µM)
MIC [6]: 25 µg/mL (≈ 67.4 µM)
MIC (Escherichia coli [7]): 25 µg/mL (≈ 67.4 µM)
MIC (Staphylococcus aureus [8]): 25 µg/mL (≈ 67.4 µM)

C=C[C@]1(C)C[C@@H](OC(=O)Cn2cc(CN3CCN(c4ccccc4[N+](=O)[O-])CC3)nn2)[C@@]2(C)[C@@H]3C(=O)CC[C@@]3(CC[C@@H]2C)[C@@H](C)[C@@H]1O
MIC (Staphylococcus aureus [12]): 0.5 µg/mL (≈ 0.771 µM)
MIC (Staphylococcus aureus [13]): 0.5 µg/mL (≈ 0.771 µM)
MIC (Staphylococcus aureus [14]): 0.5 µg/mL (≈ 0.771 µM)
MIC (Staphylococcus aureus [15]): 0.5 µg/mL (≈ 0.771 µM)
